Activity calls are given as the source filed them. How the calls were made is not given here.
The compounds below were run on SNU-C1 viability, CellTiter-Glo ATP luminescence (assay: SNU-C1 cell viability reduction, dose response, CellTiter-Glo luminescence (AID 1117323)).
Work on `CCCCCCCCCCCCCC[N+](C)(C)C` yielded an IC50 of 5.17 nM.
`Cc1ccc([N+](=O)[O-])[c]2c1[O][Hg]2` gave an IC50 of 202 nM.
In the case of `O=C(O)C1(C(=O)O)CCC1.[NH2-].[NH2-].[Pt+2]`, the IC50 is reported as > 20000 nM (inactive).
`O=C1[O][Bi][O]c2ccccc21` was tested, and the IC50 was 15400 nM (inactive).
`CC[C@]1(O)C[C@@H]2CN(CCc3c([nH]c4ccccc34)[C@@](C(=O)OC)(c3cc4c(cc3OC)N(C)[C@H]3[C@@](O)(C(=O)OC)[C@H](OC(C)=O)[C@]5(CC)C=CCN6CC[C@]43[C@@H]65)C2)C1` was tested, and the IC50 was > 20000 nM (inactive).
With `CC(=O)[O][Hg][c]1ccccc1` the IC50 was 192 nM.
`OCCN1CCN(CC/C=C2/c3ccccc3Sc3ccc(C(F)(F)F)cc32)CC1` was tested, and the IC50 was 1030 nM.
